This passage reports MIC, MBC and MFC results from ChEMBL document CHEMBL4396937, “Synthesis of new triazole fused imidazo[2,1-b]thiazole hybrids with emphasis on Staphylococcus aureus virulence factors” (Bioorg Med Chem Lett, 2019).

The MIC is the lowest concentration found to suppress growth. In general, MBC refers to the lowest tested concentration that kills the bacteria rather than only halting them. One may read the MFC as the lowest tested concentration that kills the fungus rather than only halting it.

Holding throughout (format): functional
Test [1] relates to Bacillus subtilis. The experiment in a line: Antibacterial activity against Bacillus subtilis MTCC 121 assessed as reduction in bacterial growth incubated for 24 hrs by agar well diffusion method.
Test [2] deals with Staphylococcus aureus. The experiment in a line: Antibacterial activity against Staphylococcus aureus MLS-16 MTCC 2940 assessed as reduction in bacterial growth incubated for 24 hrs by agar well diffusion method. Background: Agar diffusion results depend on both activity and mobility in agar.
For test [3], the system named is Micrococcus luteus. The experiment in a line: Antibacterial activity against Micrococcus luteus MTCC 2470 assessed as reduction in bacterial growth incubated for 24 hrs by agar well diffusion method.
The test system of test [4] is Staphylococcus aureus. The experiment in a line: Antibacterial activity against Staphylococcus aureus MTCC 96 assessed as reduction in bacterial growth incubated for 24 hrs by agar well diffusion method.
Test [5] deals with Escherichia coli. The experiment in a line: Antibacterial activity against Escherichia coli MTCC 739 assessed as reduction in bacterial growth incubated for 24 hrs by agar well diffusion method.
Test [6] relates to Pseudomonas aeruginosa. The experiment in a line: Antibacterial activity against Pseudomonas aeruginosa MTCC 2453 assessed as reduction in bacterial growth incubated for 24 hrs by agar well diffusion method.
Test [7] has as its system Raoultella planticola. The experiment in a line: Antibacterial activity against Klebsiella planticola MTCC 530 assessed as reduction in bacterial growth incubated for 24 hrs by agar well diffusion method.
For test [8], the system named is Candida albicans. The experiment in a line: Antifungal activity against Candida albicans MTCC 3017 assessed as reduction in fungal growth incubated for 24 hrs by agar well diffusion method. To be noted: MTCC 3017, 24 h.
In test [9] the test system is Bacillus subtilis. The experiment in a line: Bactericidal activity against Bacillus subtilis MTCC 121 assessed as reduction in bacterial survival incubated for 24 hrs followed by transfer of microbial suspension to agar plates and measured at 24 hrs post transfer by agar well diffusion method.
The subject of test [10] is Staphylococcus aureus. The experiment in a line: Bactericidal activity against Staphylococcus aureus MLS-16 MTCC 2940 assessed as reduction in bacterial survival incubated for 24 hrs followed by transfer of microbial suspension to agar plates and measured at 24 hrs post transfer by agar well diffusion method.
Test [11] has as its system Micrococcus luteus. The experiment in a line: Bactericidal activity against Micrococcus luteus MTCC 2470 assessed as reduction in bacterial survival incubated for 24 hrs followed by transfer of microbial suspension to agar plates and measured at 24 hrs post transfer by agar well diffusion method.
Test [12] has as its system Staphylococcus aureus. The experiment in a line: Bactericidal activity against Staphylococcus aureus MTCC 96 assessed as reduction in bacterial survival incubated for 24 hrs followed by transfer of microbial suspension to agar plates and measured at 24 hrs post transfer by agar well diffusion method.
Test [13] relates to Escherichia coli. The experiment in a line: Bactericidal activity against Escherichia coli MTCC 739 assessed as reduction in bacterial survival incubated for 24 hrs followed by transfer of microbial suspension to agar plates and measured at 24 hrs post transfer by agar well diffusion method.
Test [14] concerns Pseudomonas aeruginosa. The experiment in a line: Bactericidal activity against Pseudomonas aeruginosa MTCC 2453 assessed as reduction in bacterial survival incubated for 24 hrs followed by transfer of microbial suspension to agar plates and measured at 24 hrs post transfer by agar well diffusion method.
Test [15] concerns Raoultella planticola. The experiment in a line: Bactericidal activity against Klebsiella planticola MTCC 530 assessed as reduction in bacterial survival incubated for 24 hrs followed by transfer of microbial suspension to agar plates and measured at 24 hrs post transfer by agar well diffusion method.
For test [16], the system named is Candida albicans. The experiment in a line: Fungicidal activity against Candida albicans MTCC 3017 assessed as reduction in fungal survival incubated for 24 hrs followed by transfer of microbial suspension to agar plates and measured at 24 hrs post transfer by agar well diffusion method. To be noted: MTCC 3017, 24 h.

In brackets after ≈: the same amount, converted by molar mass. Activity calls are given as the source filed them. The calls are words filed in the database; no cut-off is given here.

Turning to `COc1ccc(-c2nc3sccn3c2C(=O)c2cn(-c3ccc(F)cc3)nn2)cc1`, the MIC in test [1] (MTCC 121, 24 h) was 3.9 µg/mL (≈ 9.3 µM); in test [2] (MLS-16 MTCC 2940, 24 h), 7.8 µg/mL (≈ 18.6 µM); in test [3] (MTCC 2470, 24 h), 3.9 µg/mL (≈ 9.3 µM); in [4] (MTCC 96, 24 h) it was 3.9 µg/mL (≈ 9.3 µM); in test [5] (MTCC 739, 24 h), over 125 µg/mL; in [6] (MTCC 2453, 24 h), over 125 µg/mL. The MIC in test [7] (MTCC 530, 24 h) is over 125 µg/mL; in [8], 15.6 µg/mL (≈ 37.2 µM). Also, the minimal bactericidal concentration (MBC) was 7.8 µg/mL (≈ 18.6 µM) in test [9] (MTCC 121, 24 h); 15.6 µg/mL (≈ 37.2 µM) in test [10] (MLS-16 MTCC 2940, 24 h); 7.8 µg/mL (≈ 18.6 µM) in [11] (MTCC 2470, 24 h); 7.8 µg/mL (≈ 18.6 µM) in test [12] (MTCC 96, 24 h); over 125 µg/mL in [13] (MTCC 739, 24 h); over 125 µg/mL in test [14] (MTCC 2453, 24 h). In addition, the MBC in test [15] (MTCC 530, 24 h) is over 125 µg/mL. The MFC in test [16] amounted to 31.2 µg/mL (≈ 74.4 µM).

As for `O=C(c1cn(-c2ccc(F)cc2)nn1)c1c(-c2ccccc2)nc2sccn12`, the MIC in test [1] (MTCC 121, 24 h) is 7.8 µg/mL (≈ 20 µM); in test [2] (MLS-16 MTCC 2940, 24 h) it was over 125 µg/mL; in [3] (MTCC 2470, 24 h), over 125 µg/mL; in test [4] (MTCC 96, 24 h) it was over 125 µg/mL; in test [5] (MTCC 739, 24 h) it was over 125 µg/mL; in [6] (MTCC 2453, 24 h), over 125 µg/mL. Also, the minimum inhibitory concentration (MIC) in test [7] (MTCC 530, 24 h) is over 125 µg/mL; in test [8] it was 15.6 µg/mL (≈ 40.1 µM). For the same molecule, the minimum bactericidal concentration (MBC) is 15.6 µg/mL (≈ 40.1 µM) in test [9] (MTCC 121, 24 h); over 125 µg/mL in test [10] (MLS-16 MTCC 2940, 24 h); over 125 µg/mL in [11] (MTCC 2470, 24 h); over 125 µg/mL in test [12] (MTCC 96, 24 h); over 125 µg/mL in test [13] (MTCC 739, 24 h); over 125 µg/mL in [14] (MTCC 2453, 24 h). In addition, in test [15] (MTCC 530, 24 h), the MBC was over 125 µg/mL. Also, the MFC in test [16] came out at 31.2 µg/mL (≈ 80.1 µM).

`COc1ccc(-c2nc3sccn3c2C(=O)c2cn(-c3ccc(OC)cc3)nn2)cc1`: the minimum inhibitory concentration (MIC) in [1] (MTCC 121, 24 h) was 7.8 µg/mL (≈ 18.1 µM); in test [2] (MLS-16 MTCC 2940, 24 h), 7.8 µg/mL (≈ 18.1 µM); in test [3] (MTCC 2470, 24 h), 15.6 µg/mL (≈ 36.2 µM); in test [4] (MTCC 96, 24 h), 15.6 µg/mL (≈ 36.2 µM); in [5] (MTCC 739, 24 h), over 125 µg/mL; in [6] (MTCC 2453, 24 h) it was over 125 µg/mL. In addition, the minimal inhibitory concentration (MIC) was found to be 7.8 µg/mL (≈ 18.1 µM) in test [7] (MTCC 530, 24 h) and 15.6 µg/mL (≈ 36.2 µM) in test [8]. In addition, the MBC is 15.6 µg/mL (≈ 36.2 µM) in test [9] (MTCC 121, 24 h); 15.6 µg/mL (≈ 36.2 µM) in [10] (MLS-16 MTCC 2940, 24 h); 31.2 µg/mL (≈ 72.3 µM) in test [11] (MTCC 2470, 24 h); 31.2 µg/mL (≈ 72.3 µM) in [12] (MTCC 96, 24 h); over 125 µg/mL in [13] (MTCC 739, 24 h); over 125 µg/mL in test [14] (MTCC 2453, 24 h). Further, the MBC in test [15] (MTCC 530, 24 h) was found to be 15.6 µg/mL (≈ 36.2 µM). Also, in test [16], the MFC was determined as 31.2 µg/mL (≈ 72.3 µM).

Take `Clc1ccc(COC(Cn2ccnc2)c2ccc(Cl)cc2Cl)c(Cl)c1` (stereo unspecified) [MICONAZOLE]: the MIC result in test [1], in test [2], in test [3], in test [4], in [5] and in test [6] was “inactive” each time. Also, in test [7], the MIC entry is “inactive”. Further, the MIC in test [8] stood at 3.9 µg/mL (≈ 9.37 µM). Besides, the MBC entry in [9], in test [10], in test [11], in test [12], in [13] and in test [14] was “inactive” each time. Moreover, the MBC result in test [15] was “inactive”. Besides, in test [16], the minimal fungicidal concentration (MFC) came out at 3.9 µg/mL (≈ 9.37 µM).

`COc1ccc(-n2cc(C(=O)c3c(-c4ccccc4)nc4sccn34)nn2)cc1`: the MIC was 3.9 µg/mL (≈ 9.71 µM) in test [1] (MTCC 121, 24 h); 7.8 µg/mL (≈ 19.4 µM) in test [2] (MLS-16 MTCC 2940, 24 h); 3.9 µg/mL (≈ 9.71 µM) in test [3] (MTCC 2470, 24 h); 7.8 µg/mL (≈ 19.4 µM) in [4] (MTCC 96, 24 h); over 125 µg/mL in test [5] (MTCC 739, 24 h); over 125 µg/mL in test [6] (MTCC 2453, 24 h). The MIC came to 15.6 µg/mL (≈ 38.9 µM) in [7] (MTCC 530, 24 h) and 15.6 µg/mL (≈ 38.9 µM) in [8]. Further, the MBC was 7.8 µg/mL (≈ 19.4 µM) in [9] (MTCC 121, 24 h); 15.6 µg/mL (≈ 38.9 µM) in test [10] (MLS-16 MTCC 2940, 24 h); 7.8 µg/mL (≈ 19.4 µM) in test [11] (MTCC 2470, 24 h); 15.6 µg/mL (≈ 38.9 µM) in [12] (MTCC 96, 24 h); over 125 µg/mL in test [13] (MTCC 739, 24 h); over 125 µg/mL in test [14] (MTCC 2453, 24 h). In addition, the MBC in test [15] (MTCC 530, 24 h) was 31.2 µg/mL (≈ 77.7 µM). In addition, the MFC in [16] was determined as 31.2 µg/mL (≈ 77.7 µM).

As for `COc1cc(-n2cc(C(=O)c3c(-c4ccccc4)nc4sccn34)nn2)cc(OC)c1OC`, the minimum inhibitory concentration (MIC) in [1] (MTCC 121, 24 h) is 3.9 µg/mL (≈ 8.45 µM); in test [2] (MLS-16 MTCC 2940, 24 h), 7.8 µg/mL (≈ 16.9 µM); in test [3] (MTCC 2470, 24 h), 3.9 µg/mL (≈ 8.45 µM); in test [4] (MTCC 96, 24 h), 3.9 µg/mL (≈ 8.45 µM); in test [5] (MTCC 739, 24 h) it was over 125 µg/mL; in test [6] (MTCC 2453, 24 h), over 125 µg/mL. Also, the MIC in test [7] (MTCC 530, 24 h) came to 31.2 µg/mL (≈ 67.6 µM); in test [8] it was 15.6 µg/mL (≈ 33.8 µM). The MBC in test [9] (MTCC 121, 24 h) is 7.8 µg/mL (≈ 16.9 µM); in [10] (MLS-16 MTCC 2940, 24 h), 15.6 µg/mL (≈ 33.8 µM); in test [11] (MTCC 2470, 24 h) it was 7.8 µg/mL (≈ 16.9 µM); in test [12] (MTCC 96, 24 h), 7.8 µg/mL (≈ 16.9 µM); in test [13] (MTCC 739, 24 h), over 125 µg/mL; in test [14] (MTCC 2453, 24 h) it was over 125 µg/mL. The MBC in test [15] (MTCC 530, 24 h) came out at 62.5 µg/mL (≈ 135 µM). Also, in [16], the MFC came out at 31.2 µg/mL (≈ 67.6 µM).
